# Assay results reported in patent US8541617B2, “Cycloalkylphenyl substituted cyclic ketoenols” (Bayer Cropscience AG, priority 2006, dated 2013).
# Assays:
# Assay type in all cases: in vivo
# [1] = tested on: green peach aphid (Myzus persicae); assay: Example G: Myzus persicae test, hydroponic treatment (MYZUPE sys.); details: concentration 20 ppm, pea plant
# Description: Myzus persicae Test, Hydroponic Treatment (MYZUPE sys.)
# Solvent: 7 parts by weight of dimethylformamide
# Emulsifier: 2 parts by weight of alkylaryl polyglycol ether
# To produce a suitable preparation of active compound, 1 part by weight of active compound is mixed with the stated amounts of solvent and emulsifier, and the concentrate is diluted with water to the desired concentration.
# The preparation of active compound is mixed with water. The stated concentration refers to the amount of active compound per volume unit of water (mg/l=ppm). The treated water is filled into vessels containing a pea plant (Pisum sativum) which is then infested with the green peach aphid (Myzus persicae).
# After the desired period of time, the kill in percent is determined. 100% means that all aphids have been killed; 0% means that none of the aphids have been killed.
# [2] = tested on: Setaria viridis; assay: Example B: Herbicidal post-emergence action; details: application rate 320 g/ha, rated after about 3 weeks
# Description: (§1) Herbicidal Post-Emergence Action
# (§2) Seeds of monocotylos and dicotylos weed and crop plants are placed in sandy lawn in wood fibre pots, covered with soil and cultivated in a greenhouse under good growth conditions. Two to three weeks after sowing, the test plants are treated at the one-leaf stage. The test compounds, formulated as wettable powders (WP) or as emulsion concentrates (EC), are then, as an aqueous suspension with a water application rate of 800 l/ha (converted), with 0.2% of wetting agent added, sprayed onto the green parts of the plants. After the test plants have been kept in the greenhouse under optimum growth conditions for about 3 weeks, the effect of the preparations is rated visually in comparison to untreated controls (herbicidal effect in percent (%): 100% effect=the plants have died, 0% effect=like control plants).
# [3] = tested on: Lolium multiflorum; assay: Example B: Herbicidal post-emergence action; details: application rate 320 g/ha, rated after about 3 weeks
# Description: as §1, §2
compound,measurement,setting,value
COC1CCC2(CC1)NC(=O)C(c1c(C)cc(C3CC3)cc1C)=C2O (stereo not drawn) [Example I-1-a-4],efficacy (kill of aphids),[1],≥ 90%
CCOC(=O)OC1=C(c2c(C)cc(C3CC3)cc2CC)C(=O)NC12CCC(OC)CC2 (stereo not drawn) [Example I-1-c-1],"herbicidal effect (efficacy), post-emergence",[2],≥ 90%
same,"herbicidal effect (efficacy), post-emergence",[3],≥ 90%
